Results from patent US10464952B2, “Beta-lactamase inhibitors” (priority 2015, dated 2019).

Tests used:
SHV-5 = target: T1, SHV-5 (Klebsiella pneumoniae, UniProt P0A3M1); test: β-lactamase enzyme inhibition assay, SHV-5 (cefotaxime substrate); format: biochemical
T1 construct: made in house; host or cells: E. coli BL21(DE3)
Description: (§1) For SHV-5, KPC-2, p99AmpC and OXA-4813-lactamases, E. coli BL21(DE3) bacterial cells carrying expression plasmids (expressed as native untagged proteins) for the individual β-lactamases were grown in 1L of Superbroth (Teknova Inc. Hollister, Calif.) supplemented with 100 μg/ml kanamycin selection and 1×5052 (0.5% glycerol, 0.05% glucose and 0.2% α-lactose) at 35° C. for 18-20 hours. Cells were harvested by centrifugation (4,000 ×g, 4° C., 20 min), re-suspended in 50 ml of 10 mM HEPES pH 7.5 (1/20 of the initial volume). The cells were lysed by sonication (5 pulses of 45 seconds) at 45 Won ice. The lysates were clarified by centrifugation at 10,000 ×g for 40 minutes at 4° C. Samples were diluted 5-fold in 50 mM sodium acetate pH 5.0, stored overnight at 4° C., after which they were centrifuged at 10,000 ×g for 30 minutes to clarify, and filtered through 0.45 μm filters. The samples were loaded onto a 5 ml Capto S sepharose cation exchange column (GE Healthcare) pre-equilibrated with 50 mM sodium acetate pH 5.0. The column was washed with 5 column volumes of 50 mM sodium acetate pH 5.0 to wash out unbound protein and a linear gradient of NaCl (0 to 500 mM) was used to elute the protein (over 16 CV) from the column. Fractions were assayed for β-lactamase activity using Centa (Calbiochem, Gibbstown, N.J.) or Nitrocefin (EMD Millipore chemicals, Darmstadt, Germany) as a reporter β-lactamase substrate for activity in the isolated fractions. Active fractions were pooled, concentrated and further purified by gel filtration chromatography on a Superdex 75 prep grade gel filtration column (GE Healthcare, Piscataway, N.J.) pre -equilibrated in 50 mM Hepes pH 7.5, 150 mM NaCl. Active fractions were pooled, concentrated, and quantitated by BCA protein determination (ThermoScientific, Rockford, Ill.), dialyzed into PBS and frozen at […] in 20% glycerol until use.
(§2) An equal volume of diluted enzyme stock was added, and the plates were incubated at 37° C. for 15 min. Nitrocefin was used as substrate for p99 AmpC, VIM-2 and OXA-48 and dispensed into each well at a final concentration of 100 μM. Absorbance at 486 nm was immediately monitored for 10 min using a Biotek Powerwave XS2 microplate spectrophotometer using the GEN5 software package (Biotek Instruments, Winooski Vt.). In an analogous fashion, imipenem was used as substrate for KPC-2 and Cefotaxime was used for SHV-5, while changes in absorbance upon hydrolysis of the β-lactam ring were monitored at 300 nm and 260 nm respectively in UV-transparent 96-well microtiter assay plates. Maximum rates of hydrolysis were compared to those in control wells (without inhibitors), and percentages of enzyme inhibition were calculated for each concentration of inhibitor. The concentration of inhibitor needed to reduce the initial rate of hydrolysis of substrate by 50% (IC50) was calculated as the residual activity of β-lactamase at 486 nm using GraFit version 7 kinetics software package (Erithacus Software, Surrey, UK).
(§3) Using the methodology described above, examples of the current invention were evaluated for their ability to inhibit β-lactamase enzymes from all four Ambler classifications (A through D). […] NT=Not tested.

KPC-2 = target: T2, KPC-2 (Klebsiella pneumoniae, UniProt Q9F663); test: β-lactamase enzyme inhibition assay, KPC-2 (imipenem substrate); format: biochemical
T2 construct: made in house; host or cells: E. coli BL21(DE3)
Description: as §1, §2, §3

[1] = target: T3, VIM-2 metallo β-lactamase (Pseudomonas aeruginosa, UniProt Q9K2N0); test: β-lactamase enzyme inhibition assay, VIM-2 (nitrocefin substrate); format: biochemical; details: 15 min preincubation at 37° C.; nitrocefin 100 μM, 486 nm; read-out: IC50 VIM-2 (Class B)
T3 construct: made in house; host or cells: E. coli BL21(DE3)
Description: For VIM-2 metallo β-lactamase, the procedure was identical with the following exceptions, first the protein was not pH adjusted to pH 5 with 50 mM sodium acetate. Second, the chromatography step was changed to a 5 ml Q sepharose anion exchange column pre-equilibrated with 50 mM Hepes pH 7.5, and elution of the protein was achieved by a linear gradient of NaCl (0-600 mM). Finally, the VIM-2 purification required a second run (3rd step) on the Q sepharose anion exchange column to achieve acceptable purity (>90%).
as §2, §3

p99 AmpC = target: T4, p99 AmpC (Enterobacter cloacae, UniProt P05364); test: β-lactamase enzyme inhibition assay, p99 AmpC (nitrocefin substrate); format: biochemical
T4 construct: made in house; host or cells: E. coli BL21(DE3)
Description: as §1, §2, §3

OXA-48 = target: T5, OXA-48 (Klebsiella pneumoniae, UniProt Q6XEC0); test: β-lactamase enzyme inhibition assay, OXA-48 (nitrocefin substrate); format: biochemical
T5 construct: made in house; host or cells: E. coli BL21(DE3)
Description: as §1, §2, §3

[2] = test system: E. cloacae expressing the Class C P99; test: Broth microdilution MIC assay, potentiation of ceftazidime; format: cell-based; details: for MIC (μg/mL) of exemplary compounds in presence of fixed β-lactams, E. cl. 144200 p99 AmpC: Fixed CAZ 4 μg/mL, CAMHB, 16-20 hours at 37° C.
Description: (§4) To determine the ability of test compounds to potentiate the inhibition of the growth of bacterial strains that produce beta-lactamase enzymes, classic cell based broth microdilution MIC assays were employed. Six bacteria strains producing beta-lactamase enzymes were used: E. coli expressing the Class A Extended Spectrum Beta-Lactamase (ESBL) CTX-M-15, E. cloacae expressing the Class C P99, K. pneumoniae expressing the Class A carbapenemase KPC-3, P.aeruginosa expressing the Class B carbapenemase VIM-2, K. pneumoniae expressing the class A carbapenemase KPC-2 and the class B carbapenemase VIM-4, and K. pneumoniae producing the Class D carbapenemase OXA-48. The assay was conducted in Cation Adjusted Mueller Hinton Broth (CAMHB, BD #212322, BD Diagnostic Systems, Sparks, Md.). Bacteria strains were grown for 3-5 hours in CAMHB broth. Test compounds were added to a microtiter plate in 2-fold serial dilutions in CAMHB in a final concentration range of 32 μg/mL to 0.015 μg/mL. An overlay of CAMHB containing a Beta-lactam was added to the compounds at a final static concentration of 4 μg/mL. […] In addition to the titration of test compounds the MICs of a panel of control beta-lactams is also tested to ensure the strains are behaving consistently from test to test. Once the test compound and antibiotics are added the plates can be inoculated according to CLSI broth microdilution method. After inoculation, the plates are incubated for 16-20 hours at 37° C., then the Minimal Inhibitory Concentration (MIC) of the test compound is determined visually.
(§5) Using the methodology described above, examples of the current invention were evaluated for their ability to inhibit the growth of β-lactamase-producing bacteria in the presence of a β-lactam antibiotic.
(§6) Representative results are shown in Table 3 where A represents an MIC of the fixed β-lactam antibiotic in the presence of >32 μg/mL of a β-lactamase inhibitor of exemplary compounds, B represents the MIC in the presence of between 8 and 32 μg/mL of a β-lactamase inhibitor of exemplary compounds, and C represents the MIC in the presence of ≤4 μg/mL of a β-lactamase inhibitor of exemplary compounds. NT=Not Tested.

[3] = test system: E. coli expressing the Class A Extended Spectrum Beta-Lactamase (ESBL) CTX-M-15; test: as above; format: cell-based; details: for MIC (μg/mL) of exemplary compounds in presence of fixed β-lactams, E. coli ESBL4 CTX-M-15: Fixed CAZ 4 μg/mL, CAMHB, 16-20 hours at 37° C.
Description: as §4, §5, §6

[4] = test system: K. pneumoniae expressing the Class A carbapenemase KPC-3; test: Broth microdilution MIC assay, potentiation of meropenem; format: cell-based; details: Fixed Mero 4 μg/mL; CAMHB, 16-20 hours at 37° C.
Description: as §4, §5

[5] = test system: K. pneumoniae producing the Class D carbapenemase OXA-48; test: as above; format: cell-based; details: Fixed Mero 4 μg/mL; CAMHB, 16-20 hours at 37° C.
Description: as §4, §5

[6] = test system: K. pneumoniae expressing the class A carbapenemase KPC-2 and the class B carbapenemase VIM-4; test: as above; format: cell-based; details: for MIC (μg/mL) of exemplary compounds in presence of fixed β-lactams, K.P. A-1797 KPC-2 VIM-4: Fixed Mero 4 μg/mL, CAMHB, 16-20 hours at 37° C.
Description: as §4, §5, §6

[7] = test system: P.aeruginosa expressing the Class B carbapenemase VIM-2; test: as above; format: cell-based; details: for MIC (μg/mL) of exemplary compounds in presence of fixed β-lactams, P. aerug. 2775 VIM-2: Fixed Mero 4 μg/mL, CAMHB, 16-20 hours at 37° C.
Description: as §4, §5, §6

T4 sequence (P05364 21-381): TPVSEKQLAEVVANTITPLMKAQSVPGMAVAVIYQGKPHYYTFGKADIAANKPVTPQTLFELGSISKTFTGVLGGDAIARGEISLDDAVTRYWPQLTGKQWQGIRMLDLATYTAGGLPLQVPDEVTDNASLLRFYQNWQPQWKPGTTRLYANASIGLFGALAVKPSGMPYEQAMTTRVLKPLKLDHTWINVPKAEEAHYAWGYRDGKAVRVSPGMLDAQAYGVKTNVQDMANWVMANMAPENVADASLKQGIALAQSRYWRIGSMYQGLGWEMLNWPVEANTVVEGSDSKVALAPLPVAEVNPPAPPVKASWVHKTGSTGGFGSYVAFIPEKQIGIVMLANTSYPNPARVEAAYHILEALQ
T1 sequence (P0A3M1 22-286): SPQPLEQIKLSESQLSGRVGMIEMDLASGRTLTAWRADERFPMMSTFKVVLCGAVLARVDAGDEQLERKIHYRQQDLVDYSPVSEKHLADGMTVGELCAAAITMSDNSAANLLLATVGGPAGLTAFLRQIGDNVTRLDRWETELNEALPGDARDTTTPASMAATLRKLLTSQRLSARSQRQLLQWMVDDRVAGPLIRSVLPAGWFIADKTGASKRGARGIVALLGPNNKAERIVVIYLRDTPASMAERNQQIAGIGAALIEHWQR
T2 sequence (Q9F663 25-293 limits assumed): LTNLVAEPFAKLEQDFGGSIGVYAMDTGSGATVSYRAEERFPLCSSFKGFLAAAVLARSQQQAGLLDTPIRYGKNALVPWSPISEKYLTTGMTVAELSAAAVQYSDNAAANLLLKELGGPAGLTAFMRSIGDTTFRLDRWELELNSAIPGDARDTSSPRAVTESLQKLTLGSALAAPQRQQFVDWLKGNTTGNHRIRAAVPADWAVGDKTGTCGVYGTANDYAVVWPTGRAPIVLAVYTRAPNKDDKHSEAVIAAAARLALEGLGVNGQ
T5 sequence (Q6XEC0 23-265 limits assumed): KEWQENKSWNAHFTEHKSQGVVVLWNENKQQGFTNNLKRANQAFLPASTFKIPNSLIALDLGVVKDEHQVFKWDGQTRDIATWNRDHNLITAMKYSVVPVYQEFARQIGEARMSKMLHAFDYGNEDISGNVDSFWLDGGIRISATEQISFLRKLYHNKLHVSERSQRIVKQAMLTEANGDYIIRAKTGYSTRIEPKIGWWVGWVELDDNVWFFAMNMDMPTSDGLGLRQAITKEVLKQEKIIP

SMILES	IC50 (SHV-5)	IC50 (KPC-2)	IC50 [1]	IC50 (p99 AmpC)	IC50 (OXA-48)	MIC (μg/mL) of exemplary compounds in presence of fixed β-lactams, E. cl. 144200 p99 AmpC [2]	MIC (μg/mL) of exemplary compounds in presence of fixed β-lactams, E. coli ESBL4 CTX-M-15 [3]	MIC (μg/mL) of exemplary compounds in presence of fixed β-lactams, K. P. 156319 KPC-3 [4]	MIC (μg/mL) of exemplary compounds in presence of fixed β-lactams, K. P. 11978 OXA-48 [5]	MIC (μg/mL) of exemplary compounds in presence of fixed β-lactams, K.P. A-1797 KPC-2 VIM-4 [6]	MIC (μg/mL) of exemplary compounds in presence of fixed β-lactams, P. aerug. 2775 VIM-2 [7]	MIC alone of partner antibiotic ([2]; antibiotic alone, E. cloacae expressing Class C P99)	MIC alone of partner antibiotic ([3]; antibiotic alone, E. coli expressing Ambler Class A ESBL CTX-M-15)	MIC alone of partner antibiotic ([6]; antibiotic alone, K. pneumoniae expressing KPC-2 and VIM-4)	MIC alone of partner antibiotic ([7]; antibiotic alone, P. aeruginosa expressing VIM-2)
CC(F)C(=O)N[C@H]1Cc2cccc(C(=O)O)c2OB1O (mixture of isomers) [Example 102, (3R)-3-(2-fluoropropanamido)-2-hydroxy-3,4-dihydro-2H -benzo[e][1,2]oxaborinine-8-carboxylic acid]	< 100 nM	< 100 nM	1000 to 10000 nM	< 100 nM	100 to 1000 nM	C (C represents the MIC in the presence of ≤4 μg/mL of a β-lactamase inhibitor)	C (C represents the MIC in the presence of ≤4 μg/mL of a β-lactamase inhibitor)	C (C represents the MIC in the presence of ≤4 μg/mL of a β-lactamase inhibitor)	C (C represents the MIC in the presence of ≤4 μg/mL of a β-lactamase inhibitor)	B (B represents the MIC in the presence of between 8 and 32 μg/mL of a β-lactamase inhibitor)	C (C represents the MIC in the presence of ≤4 μg/mL of a β-lactamase inhibitor)	–	–	–	–
CC(C)(O/N=C(\C(=O)N[C@@H]1C(=O)N2C(C(=O)[O-])=C(C[n+]3ccccc3)CS[C@H]12)c1csc(N)n1)C(=O)O [Ceftazidime, reference compound]	–	–	–	–	–	–	–	–	–	–	–	128 µg/mL	> 128 µg/mL	–	–
CCC(F)(F)C(=O)N[C@H]1Cc2cccc(C(=O)O)c2OB1O [Example 1, (R)-3-(2,2-difluorobutanamido)-2-hydroxy-3,4-dihydro-2H-benzo [e] [1,2] oxaborinine-8-carboxylic acid]	< 100 nM	100 to 1000 nM	1000 to 10000 nM	< 100 nM	100 to 1000 nM	C (C represents the MIC in the presence of ≤4 μg/mL of a β-lactamase inhibitor)	C (C represents the MIC in the presence of ≤4 μg/mL of a β-lactamase inhibitor)	B (B represents the MIC in the presence of between 8 and 32 μg/mL of a β-lactamase inhibitor)	C (C represents the MIC in the presence of ≤4 μg/mL of a β-lactamase inhibitor)	B (B represents the MIC in the presence of between 8 and 32 μg/mL of a β-lactamase inhibitor)	C (C represents the MIC in the presence of ≤4 μg/mL of a β-lactamase inhibitor)	–	–	–	–
O=C(CCCC(F)(F)F)N[C@H]1Cc2cccc(C(=O)O)c2OB1O [Example 2, (R)-2-hydroxy-3-(5,5,5-trifluoropentanamido)-3,4-dihydro-2H-benzo[e][1,2]oxaborinine-8-carboxylic acid]	< 100 nM	< 100 nM	1000 to 10000 nM	< 100 nM	100 to 1000 nM	C (C represents the MIC in the presence of ≤4 μg/mL of a β-lactamase inhibitor)	C (C represents the MIC in the presence of ≤4 μg/mL of a β-lactamase inhibitor)	C (C represents the MIC in the presence of ≤4 μg/mL of a β-lactamase inhibitor)	C (C represents the MIC in the presence of ≤4 μg/mL of a β-lactamase inhibitor)	C (C represents the MIC in the presence of ≤4 μg/mL of a β-lactamase inhibitor)	B (B represents the MIC in the presence of between 8 and 32 μg/mL of a β-lactamase inhibitor)	–	–	–	–
CC(F)(F)CC(=O)N[C@H]1Cc2cccc(C(=O)O)c2OB1O [Example 3, (R)-3-(3,3-difluorobutanamido)-2-hydroxy-3,4-dihydro-2H-benzo [e][1,2]oxaborinine-8-carboxylic acid]	< 100 nM	100 to 1000 nM	1000 to 10000 nM	< 100 nM	100 to 1000 nM	C (C represents the MIC in the presence of ≤4 μg/mL of a β-lactamase inhibitor)	C (C represents the MIC in the presence of ≤4 μg/mL of a β-lactamase inhibitor)	C (C represents the MIC in the presence of ≤4 μg/mL of a β-lactamase inhibitor)	C (C represents the MIC in the presence of ≤4 μg/mL of a β-lactamase inhibitor)	C (C represents the MIC in the presence of ≤4 μg/mL of a β-lactamase inhibitor)	C (C represents the MIC in the presence of ≤4 μg/mL of a β-lactamase inhibitor)	–	–	–	–
C[C@@H](O)[C@H]1C(=O)N2C(C(=O)O)=C(S[C@@H]3CN[C@H](C(=O)N(C)C)C3)[C@H](C)[C@H]12 [Meropenem, reference compound]	–	–	–	–	–	–	–	–	–	–	–	–	–	64 µg/mL	16 µg/mL
